{
  "source": "patent US10111902B2",
  "about": "“Polymers for reversing heparin-based anticoagulation” (University of British Columbia, priority 2011, dated 2018)",
  "key": {"[1]": {"system": "ctDNA", "assay": "Binding affinity of polymers for ctDNA", "conditions": "buffered water (pH 7.2), 50 mM NaCl, 25° C"}, "[2]": {"system": "blood", "assay": "Blood compatibility at 1 mg/ml", "conditions": "footnote [3] to protamine: showed complement activation, platelet activation, behaved like an anticoagulant, massive hemolysis"}},
  "data": [
    {"smiles": "NCCCNCCCCNCCCN", "note": "[Tetramine (spermine), spermine]", "values": [
      {"measurement": "C50 (nM) [1]", "setting": "[1]", "value": 2788, "unit": "nM"},
      {"measurement": "Blood compatibility at 1 mg/ml", "setting": "[2]", "value": "poor"}
    ]}
  ]
}
